This note sets out measurements from paper PMC7108740, “Exploring the molecular structures that confer ligand selectivity for galanin type II and III receptors” (PLoS ONE, 2020).

Broadly, the EC50 is the concentration giving half of the maximal effect.

Numbering of substitutions follows the chain as printed. Ends that are not written are not given here.

Assay [1] concerns the target T1, GALR3 double mutant L^100F, Y^107H (Homo sapiens, UniProt O60755, L100F/Y107H).
T1 construct: expressed in transfected cells; host or cells: HEK293 cells stably expressing Gqi
T1 sequence (O60755 1-368 L100F/Y107H): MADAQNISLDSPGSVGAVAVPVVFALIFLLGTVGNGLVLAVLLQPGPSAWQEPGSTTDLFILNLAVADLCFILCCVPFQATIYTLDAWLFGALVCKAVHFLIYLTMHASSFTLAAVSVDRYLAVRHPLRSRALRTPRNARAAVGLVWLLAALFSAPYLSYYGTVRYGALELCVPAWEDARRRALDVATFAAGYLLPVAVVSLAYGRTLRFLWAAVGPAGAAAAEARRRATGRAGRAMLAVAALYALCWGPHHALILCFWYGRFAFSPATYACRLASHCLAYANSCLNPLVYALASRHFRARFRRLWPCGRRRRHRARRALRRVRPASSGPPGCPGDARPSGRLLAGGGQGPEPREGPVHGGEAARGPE
Kind of assay: SRE-luc luciferase assay, GALR3 L100F,Y107H. It counts as cell-based. Conditions: GALR3 L^100F, SRE-luc in HEK293 Gqi cells, ligand 6 h, mean ± S.E., SEM. The source says:
For domain swapping between GALR2 and GALR3, individual cDNA fragments of interest were amplified by polymerase chain reaction (PCR) with Pfu polymerase (ELPIS Biotech, Daejeon, Korea) and two specific primers, one corresponding to the 5' or 3' end of the GALR2 or GALR3 cDNA and the other to the region of overlap between the two receptors. The two resulting fragments, one from GALR2 and the other from GALR3, were subjected to a second round of PCR to generate the chimeric cDNAs. To construct single, double-, triple-, pentuple-, hextuple-, and septuple-mutant receptors, amino acids of GALR3 were substituted for the amino acids at the corresponding positions in GALR2 using PCR-based site-directed mutagenesis. All of the chimeric constructs were cloned into the pcDNA3 expression vector at HindⅢ and XbaⅠ sites. The DNA sequences of the chimeras were verified by automatic sequencing. HEK293 cells stably expressing the Gqi construct, which allows induction of Gq-dependent signaling pathways upon activation of a Gi-coupled receptor [14, 30], were maintained in Dulbecco's Modified Eagle's Medium (DMEM) in the presence of 10% fetal bovine serum and 1% penicillin and streptomycin. For all transfections, 200 ng DNA (100 ng receptor and 100 ng SRE-luc) mixed with lipofectamine 2000 was applied to 60–80% confluent cells on a multi-well plate according to the manufacturer's instructions (Invitrogen, Carlsbad, CA). For luciferase assays, HEK293 Gqi cells were seeded on 48-well plates at a density of 2.5 × 10^4 cells/well one day before transfection. […] The luciferase activity in 50 μl cell extract was determined using a luciferase assay system according to the standard protocol for the Synergy 2 Multi-Mode Microplate Reader (BioTek, Winooski, VT, USA). […] The concentrations of agonists that induced half-maximal stimulation (EC50) were calculated using the GraphPad PRISM5 software (GraphPad software, Inc., San Diego, CA). […]

In another assay the target is T2, GALR3 (Homo sapiens, UniProt O60755).
T2 sequence (O60755 1-368): T1 sequence (O60755 1-368 L100F/Y107H) with F100L, H107Y
Kind of assay: SRE-luc luciferase assay, WT GALR3. Type of assay: cell-based. Details: host or cells: HEK293 cells stably expressing Gqi. To be noted: SRE-luc in HEK293 Gqi cells, ligand 6 h, mean ± SE, at least three independent experiments, SEM. The source says: The pcDNA3.1 vector was purchased from Invitrogen (San Diego, CA, USA). The serum response element (SRE)-luciferase (SRE-luc) vector containing a single copy of the SRE (CCATATTAGG) conjugated with luciferase was purchased from Stratagene (La Jolla, CA, USA). The cDNAs for human GALR1, GALR2, and GALR3 were obtained from BRN SCIENCE, Inc. The cDNAs were inserted into the EcoRⅠ and XhoⅠ sites of pcDNA3.1.
HEK293 cells stably expressing the Gqi construct, which allows induction of Gq-dependent signaling pathways upon activation of a Gi-coupled receptor [14, 30], were maintained in Dulbecco's Modified Eagle's Medium (DMEM) in the presence of 10% fetal bovine serum and 1% penicillin and streptomycin. For all transfections, 200 ng DNA (100 ng receptor and 100 ng SRE-luc) mixed with lipofectamine 2000 was applied to 60–80% confluent cells on a multi-well plate according to the manufacturer's instructions (Invitrogen, Carlsbad, CA).
For luciferase assays, HEK293 Gqi cells were seeded on 48-well plates at a density of 2.5 × 10^4 cells/well one day before transfection. A mixture including 100 ng SRE-luc reporter construct, 100 ng expression plasmid, and lipofectamine 2000 reagent in diluted Opti-MEM (Gibco) was incubated at room temperature for 20 min and then added into each well according to the manufacturer's instructions (Invitrogen, CA, USA). Before exposure to the ligands, the cells were maintained in serum-free DMEM for 16–18 h. Approximately 48 h after transfection, the cells were treated with ligand for 6 h. The cells were then lysed by the addition of 100 μl lysis buffer. The luciferase activity in 50 μl cell extract was determined using a luciferase assay system according to the standard protocol for the Synergy 2 Multi-Mode Microplate Reader (BioTek, Winooski, VT, USA).
Data analysis was performed by non-linear regression with a sigmoidal dose-response curve. The concentrations of agonists that induced half-maximal stimulation (EC50) were calculated using the GraphPad PRISM5 software (GraphPad software, Inc., San Diego, CA). All data are presented as the mean ± standard error (SE) of at least three independent experiments.

As for NWTPQAALYLKGAQ-NH2 [A^7-SPX], in assay [1], the EC50 came to 69.2 ± 20.2 nM.
As for NWTPNAMLYLKGAQ-NH2 [N^5-SPX], the EC50 in assay [1] is 155 ± 40.1 nM; on GALR3, 398 ± 96.1 nM.
As for `CSCC[C@H](NC(=O)[C@H](C)NC(=O)[C@H](CCC(N)=O)NC(=O)[C@@H]1CCCN1C(=O)[C@@H](NC(=O)[C@H](Cc1c[nH]c2ccccc12)NC(=O)[C@@H](N)CC(N)=O)[C@@H](C)O)C(=O)N[C@@H](CC(C)C)C(=O)N[C@@H](Cc1ccc(O)cc1)C(=O)N[C@@H](CC(C)C)C(=O)N[C@@H](CCCCN)C(=O)NCC(=O)N[C@@H](C)C(=O)N[C@@H](CCC(N)=O)C(N)=O` [SPX, reference compound], the EC50 came out at 38.9 ± 7.28 nM in assay [1] and 115 nM at GALR3.
As to NWTPQAMLYLKGPQ-NH2 [P^13-SPX], the concentration giving a half-maximal response (EC50) at GALR3 turned out to be 333 ± 55.7 nM.
